Measurements from PubChem BioAssay (NCI).
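Dose response: 5 concentrations. Exposure: 48 h. Format: 96-well plates. Endpoint: linear interpolation; highest concentration if not reached. Abbreviation: GI50, concentration required for 50% inhibition of growth. At the TGI there is no net growth.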

Legend:
Experiment in all cases: DTP human tumour cell line panel, 48 h
SK-OV-3 ovarian = test system: SK-OV-3 ovarian
SN12C renal = test system: SN12C renal
U251 CNS = test system: U251 CNS
OVCAR-5 ovarian = test system: OVCAR-5 ovarian
MALME-3M melanoma = test system: MALME-3M melanoma
NCI-H226 lung = test system: NCI-H226 lung
SW-620 colon = test system: SW-620 colon
HCT-15 colon = test system: HCT-15 colon
UACC-257 melanoma = test system: UACC-257 melanoma
T-47D breast = test system: T-47D breast
HCT-116 colon = test system: HCT-116 colon
HL-60(TB) leukemia = test system: HL-60(TB) leukemia
SNB-19 CNS = test system: SNB-19 CNS
NCI-H522 lung = test system: NCI-H522 lung
COLO 205 colon = test system: COLO 205 colon
A549 NSCLC = test system: A549 NSCLC
RXF 393 renal = test system: RXF 393 renal
HT29 colon = test system: HT29 colon
IGROV1 ovarian = test system: IGROV1 ovarian
KM12 colon = test system: KM12 colon
HOP-92 NSCLC = test system: HOP-92 NSCLC
A498 renal = test system: A498 renal
HOP-62 NSCLC = test system: HOP-62 NSCLC
LOX IMVI melanoma = test system: LOX IMVI melanoma
786-0 renal = test system: 786-0 renal
SNB-75 CNS = test system: SNB-75 CNS
SF-539 CNS = test system: SF-539 CNS
NCI-H23 lung = test system: NCI-H23 lung
HS 578T breast = test system: HS 578T breast
UACC-62 melanoma = test system: UACC-62 melanoma
MCF7 breast = test system: MCF7 breast
MDA-MB-231 breast = test system: MDA-MB-231 breast
UO-31 renal = test system: UO-31 renal
SK-MEL-28 melanoma = test system: SK-MEL-28 melanoma
RPMI-8226 leukemia = test system: RPMI-8226 leukemia
OVCAR-8 ovarian = test system: OVCAR-8 ovarian
MDA-MB-435 = test system: MDA-MB-435
M14 melanoma = test system: M14 melanoma
HCC-2998 colon = test system: HCC-2998 colon
EKVX NSCLC = test system: EKVX NSCLC
SK-MEL-5 melanoma = test system: SK-MEL-5 melanoma
CAKI-1 renal = test system: CAKI-1 renal
TK-10 renal = test system: TK-10 renal
DU-145 prostate = test system: DU-145 prostate
NCI/ADR-RES ovarian = test system: NCI/ADR-RES ovarian
SF-268 CNS = test system: SF-268 CNS
PC-3 prostate = test system: PC-3 prostate
SR leukemia = test system: SR leukemia
MOLT-4 leukemia = test system: MOLT-4 leukemia
OVCAR-3 ovarian = test system: OVCAR-3 ovarian
ACHN renal = test system: ACHN renal
SK-MEL-2 melanoma = test system: SK-MEL-2 melanoma
NCI-H460 lung = test system: NCI-H460 lung
CCRF-CEM leukemia = test system: CCRF-CEM leukemia
OVCAR-4 ovarian = test system: OVCAR-4 ovarian
BT-549 breast = test system: BT-549 breast

## [N-]=[N+]=CC(=O)OCC(N)C(=O)O (configuration not stated)
SK-OV-3 ovarian
  GI50: 0.808 µM
  TGI: > 100 µM
SN12C renal
  GI50: 0.749 µM
  TGI: > 100 µM
U251 CNS
  GI50: 0.778 µM
  TGI: > 100 µM
OVCAR-5 ovarian
  GI50: 0.971 µM
  TGI: > 100 µM
MALME-3M melanoma
  GI50: 6.56 µM
  TGI: > 100 µM
NCI-H226 lung
  GI50: 3.53 µM
  TGI: > 100 µM
SW-620 colon
  GI50: 0.649 µM
  TGI: > 100 µM
HCT-15 colon
  GI50: 0.631 µM
  TGI: > 100 µM
UACC-257 melanoma
  GI50: 3.61 µM
  TGI: > 100 µM
T-47D breast
  GI50: 12.4 µM
  TGI: > 100 µM
HCT-116 colon
  GI50: 0.448 µM
  TGI: > 100 µM
HL-60(TB) leukemia
  GI50: 0.918 µM
  TGI: > 100 µM
SNB-19 CNS
  GI50: 2.28 µM
  TGI: > 100 µM
NCI-H522 lung
  GI50: 0.512 µM
  TGI: > 100 µM
COLO 205 colon
  GI50: 0.778 µM
  TGI: > 100 µM
A549 NSCLC
  GI50: 0.711 µM
  TGI: 2.86 µM
RXF 393 renal
  GI50: 4.46 µM
  TGI: > 100 µM
HT29 colon
  GI50: 0.277 µM
  TGI: > 100 µM
IGROV1 ovarian
  GI50: 5.47 µM
  TGI: > 100 µM
KM12 colon
  GI50: 0.58 µM
  TGI: > 100 µM
HOP-92 NSCLC
  GI50: > 100 µM
  TGI: > 100 µM
A498 renal
  GI50: 57.6 µM
  TGI: > 100 µM
HOP-62 NSCLC
  GI50: 2.26 µM
  TGI: > 100 µM
LOX IMVI melanoma
  GI50: 0.485 µM
  TGI: > 100 µM
786-0 renal
  GI50: 0.856 µM
  TGI: > 100 µM
SNB-75 CNS
  GI50: 2.68 µM
  TGI: > 100 µM
SF-539 CNS
  GI50: 0.64 µM
  TGI: > 100 µM
NCI-H23 lung
  GI50: 1.85 µM
  TGI: > 100 µM
HS 578T breast
  GI50: > 100 µM
  TGI: > 100 µM
UACC-62 melanoma
  GI50: 2.06 µM
  TGI: > 100 µM
MCF7 breast
  GI50: 0.456 µM
  TGI: > 100 µM
MDA-MB-231 breast
  GI50: 0.763 µM
  TGI: > 100 µM
UO-31 renal
  GI50: 4.92 µM
  TGI: > 100 µM
SK-MEL-28 melanoma
  GI50: 2.94 µM
  TGI: > 100 µM
RPMI-8226 leukemia
  GI50: 1.8 µM
  TGI: > 100 µM
OVCAR-8 ovarian
  GI50: 0.923 µM
  TGI: > 100 µM
MDA-MB-435
  GI50: 0.457 µM
  TGI: > 100 µM
M14 melanoma
  GI50: 0.809 µM
  TGI: > 100 µM
HCC-2998 colon
  GI50: 0.556 µM
  TGI: > 100 µM
EKVX NSCLC
  GI50: 3.13 µM
  TGI: > 100 µM
SK-MEL-5 melanoma
  GI50: 0.563 µM
  TGI: 14.5 µM
CAKI-1 renal
  GI50: 0.429 µM
  TGI: > 100 µM
TK-10 renal
  GI50: 0.573 µM
  TGI: > 100 µM
DU-145 prostate
  GI50: 0.952 µM
  TGI: > 100 µM
NCI/ADR-RES ovarian
  GI50: 3.2 µM
  TGI: > 100 µM
SF-268 CNS
  GI50: 1.89 µM
  TGI: > 100 µM
PC-3 prostate
  GI50: 2.42 µM
  TGI: > 100 µM
SR leukemia
  GI50: 0.638 µM
  TGI: > 100 µM
MOLT-4 leukemia
  GI50: 0.638 µM
  TGI: > 100 µM
OVCAR-3 ovarian
  GI50: 3.73 µM
  TGI: > 100 µM
ACHN renal
  GI50: 1.7 µM
  TGI: > 100 µM
SK-MEL-2 melanoma
  GI50: 15.9 µM
  TGI: > 100 µM
NCI-H460 lung
  GI50: 1.27 µM
  TGI: 16.4 µM
CCRF-CEM leukemia
  GI50: 0.623 µM
  TGI: > 100 µM
OVCAR-4 ovarian
  GI50: 4.29 µM
  TGI: > 100 µM
BT-549 breast
  GI50: 16.7 µM
  TGI: > 100 µM
